This experiment deals with endothelin receptors. The experiment can be described thus: Radioligand binding assay: [^125 I]ET-1 binding in porcine kidney membrane. The following applies: membranes from inner medulla of porcine kidney; [^125 I]ET-1 16 pM; 60 minutes at 23° C.; read-out: Effect on specific binding of [^125 I]ET-1 in porcine kidney membrane, IC50. Here is the method: Radioligand binding assay:
(a) Crude receptor membrane preparation:
Membranes as endothelin receptors were isolated from inner medulla of porcine kidney. The inner medulla of porcine kidney was placed in ice-cold buffer (0.25M sucrose, 5 mM Tris-HCl, 0.1 mM EDTA, pH 7.5). The inner medulla was homogenized in five volumes (w/v) of ice-cold buffer using a Brinkman Polytron PT-10 at a setting of 16,000 rpm for three 10-sec periods. The homogenate was centrifuged at 10,000×g for 20 minutes at 4° C. The pellet was discarded and the supernatant was centrifuged at 100,000×g for 60 minutes at 4° C. […]
To determine [^125 I]ET-1 binding to kidney, membrane suspensions prepared from kidney (10 μg of protein) were incubated by constant shaking for 60 minutes at 23° C. with [^125 I]ET-1 (range, 4-900 pM) in a total volume of 250 μl of buffer 1 that contained 0.1 mg/ml of bovine serum albumin. […] The filter disks were washed three times with 0.2 ml of ice-cold 50 mM Tris-HCl buffer (pH 7.5), and the radioactivity was counted in a gamma counter (Hewlett-Packard) with an efficiency of 71%. […] The Kd was determined by Scatchard analysis. […]

As to `CC(C)C[C@@H](C(=O)N[C@H](Cc1cccc2ccccc12)C(=O)N[C@@H](C(=O)O)C(C)C)N(CCN(C)Cc1cccnc1)C(=O)Cc1ccccc1Cl` [Compound A], the IC50 (in general, the midpoint of a concentration-inhibition curve) was 68 nM.

The record behind these values is patent US5888972A, “Peptide compounds, their preparation and uses” (Fujisawa Pharmaceutical Co., Ltd., priority 1993, dated 1999).
